In US20110312945A1, “CRTH2 MODULATORS” (priority 2008, published 2011):

Molecular target: T1, CRTH2 (Homo sapiens, UniProt Q9Y5Y4)
T1 construct: polymorphonuclear cells (0.5 ml; 10^6/ml cells) in PBS containing 0.9 mM CaCl2 and 0.5 mM MgCl2; endogenous in cells; host or cells: polymorphonuclear cells (eosinophils gated by flow cytometry)
T1 sequence (Q9Y5Y4 1-395): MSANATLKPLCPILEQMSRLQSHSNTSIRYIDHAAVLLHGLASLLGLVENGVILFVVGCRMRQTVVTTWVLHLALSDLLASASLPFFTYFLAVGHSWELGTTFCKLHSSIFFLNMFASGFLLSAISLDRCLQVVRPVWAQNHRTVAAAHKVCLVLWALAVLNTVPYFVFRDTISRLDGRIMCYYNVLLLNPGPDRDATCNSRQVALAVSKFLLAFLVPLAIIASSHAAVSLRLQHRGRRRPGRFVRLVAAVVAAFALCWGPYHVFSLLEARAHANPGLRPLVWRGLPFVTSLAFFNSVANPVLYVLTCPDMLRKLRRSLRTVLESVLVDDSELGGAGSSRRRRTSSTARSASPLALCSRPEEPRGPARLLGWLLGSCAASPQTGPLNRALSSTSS
Test: DPBS CD11b Antagonist Assay
Format: cell-based
Conditions: polymorphonuclear cells in PBS, eosinophil CD11b expression, challenge with 15R-Methyl-PGD2 (10 nM)
Protocol: DPBS CD11b Antagonist Assay. The potential CRTH2 antagonist activity of certain compounds was tested using a CD11b expression assay using essentially the method described by Monneret et al. (J Pharmacol Exp Ther 304:349-55, 2003). Briefly, polymorphonuclear cells (0.5 ml; 10^6/ml cells) in PBS containing 0.9 mM CaCl2 and 0.5 mM MgCl2) were preincubated with various concentrations of test compounds at room temperature for 10 minutes before they were challenged with the agonist 15R-Methyl-PGD2 (10 nM). The incubations were terminated by the addition of ice-cold FACSFlow (BD Biosciences; Cat# 342003) and centrifugation (400 g for 5 minutes at 4° C.). The cells were then incubated for 30 minutes at 4° C. with a mixture of PE-labeled mouse anti-human VLA-4 (5 μl; BD Biosciences) and FITC-labeled mouse anti-human CD11b (10 μl; Beckman Coulter). The cells were then incubated with Optilyse C (0.25 ml; Beckman Coulter) for 15 minutes, centrifuged, and then fixed in PBS (0.4 ml; calcium and magnesium free) containing 1% formaldehyde. The distribution of fluorescence intensities among 60,000 cells was measured by flow cytometry. Eosinophils were gated out on the basis of their granularity (high side scatter) and labeling with VLA-4 (PE fluorescence). CD11b was then measured in the eosinophil region on the basis of fluorescence due to FITC. All data were corrected for the value obtained for the corresponding isotope control antibody.

Row | SMILES | IC50
1 | Cc1c(Cc2ccc(S(=O)(=O)N3CCCCCC3)cc2)c2c(n1CC(=O)O)CCC(C)(C)C2 [Example I-16, 2-(3-(4-(Azepan-1-ylsulfonyl)benzyl)-2,5,5-trimethyl-4,5,6,7-tetrahydro-1H-indol-1-yl)acetic acid] | 5 to 100 nM
2 | CCOC(=O)Cn1c(C)c(Cc2ccccc2S(=O)(=O)N2CCOCC2)c2c1CCC(C)(C)C2 [Example I-25, Ethyl 2-(2,5,5-trimethyl-3-(2-(morpholinosulfonyl)benzyl)-4,5,6,7-tetrahydro-1H-indol-1-yl)acetate] | 100 to 500 nM
3 | Cc1c(Cc2cccc(S(=O)(=O)N3CCOCC3)c2)c2c(n1CC(=O)O)CCC(C)(C)C2 [Example I-27, 2-(2,5,5-trimethyl-3-(3-(morpholinosulfonyl)benzyl)-4,5,6,7-tetrahydro-1H-indol-1-yl)acetic acid] | 5 to 100 nM
4 | Cc1c(C(O)c2ccccc2S(=O)(=O)N2CCCC2)c2c(n1CC(=O)O)CC(C)(C)CC2=O (centres unmarked) [Example I-50, 2-(3-(hydroxy(2-(pyrrolidin-1-ylsulfonyl)phenyl)methyl)-2,6,6-trimethyl-4-oxo-4,5,6,7-tetrahydro-1H-indol-1-yl)acetic acid] | > 500 nM
5 | CCOC(=O)Cn1c(C)c(Sc2ccc(Br)cc2S(=O)(=O)N2CCCC2)c2c1CC(C)(C)CC2=O [Example I-53, ethyl 2-(3-(4-bromo-2-(pyrrolidin-1-ylsulfonyl)phenylthio)-2,6,6-trimethyl-4-oxo-4,5,6,7-tetrahydro-1H-indol-1-yl)acetate] | > 500 nM
6 | CCOC(=O)Cn1c(C)c(Sc2ccc(C)cc2S(=O)(=O)N2CCCC2)c2c1CC(C)(C)CC2=O [Example I-54, ethyl 2-(2,6,6-trimethyl-3-(4-methyl-2-(pyrrolidin-1-ylsulfonyl)phenylthio)-4-oxo-4,5,6,7-tetrahydro-1H-indol-1-yl)acetate] | 100 to 500 nM
7 | CCOC(=O)Cn1c(C)c(Cc2ccccc2S(=O)(=O)N2CCOCC2)c2c1CC(C)(C)CC2=O [Example I-56, ethyl 2-(2,6,6-trimethyl-3-(2-(morpholinosulfonyl)benzyl)-4-oxo-4,5,6,7-tetrahydro-1H-indol-1-yl)acetate] | 100 to 500 nM
8 | CCOC(=O)Cn1c(C)c(Sc2ccc(F)cc2S(=O)(=O)N2CCCC2)c2c1CC(C)(C)CC2=O [Example I-57, Ethyl 2-(3-(4-fluoro-2-(pyrrolidin-1-ylsulfonyl)phenylthio)-2,6,6-trimethyl-4-oxo-4,5,6,7-tetrahydro-1H-indol-1-yl)acetate] | 5 to 100 nM
9 | COC(=O)Cn1c(C)c(Cc2ccccc2S(=O)(=O)N2CCCC2)c2c1CC(C)(C)CC2=O [Example I-58, Methyl 2-(2,6,6-trimethyl-4-oxo-3-(2-(pyrrolidin-1-ylsulfonyl)benzyl)-4,5,6,7-tetrahydro-1H-indol-1-yl)acetate] | 5 to 100 nM
10 | COC(=O)Cn1c(C)c(Cc2ccccc2S(=O)(=O)N2CCOCC2)c2c1CC(C)(C)CC2=O [Example I-59, methyl 2-(2,6,6-trimethyl-3-(2-(morpholinosulfonyl)benzyl)-4-oxo-4,5,6,7-tetrahydro-1H-indol-1-yl)acetate] | 5 to 100 nM
11 | Cc1c(Cc2ccccc2S(=O)(=O)N2CCOCC2)c2c(n1CC(=O)OC(C)C)CC(C)(C)CC2=O [Example I-60, isopropyl 2-(2,6,6-trimethyl-3-(2-(morpholinosulfonyl)benzyl)-4-oxo-4,5,6,7-tetrahydro-1H-indol-1-yl)acetate] | > 500 nM
12 | CCOC(=O)Cn1c(C)c(Cc2ccccc2S(=O)(=O)N(C)c2ccccc2)c2c1CC(C)(C)CC2=O [Example I-66, ethyl 2-(2,6,6-trimethyl-3-(2-(N-methyl-N-phenylsulfamoyl)benzyl)-4-oxo-4,5,6,7-tetrahydro-1H-indol-1-yl)acetate] | 5 to 100 nM
13 | Cc1c(S(=O)(=O)N(C)c2ccccc2)c2c(n1CC(=O)O)CC(C)(C)CC2=O [Example I-75, 2-(2,6,6-trimethyl-3-(N-methyl-N-phenylsulfamoyl)-4-oxo-4,5,6,7-tetrahydro-1H-indol-1-yl)acetic acid] | > 500 nM
14 | Cc1c(Cc2ccccc2S(=O)(=O)C2CCCCC2)c2c(n1CC(=O)O)CC(C)(C)CC2=O [Example I-82, 2-(3-(2-(cyclohexylsulfonyl)benzyl)-2,6,6-trimethyl-4-oxo-4,5,6,7-tetrahydro-1H-indol-1-yl)acetic acid] | < 5 nM
15 | Cc1c(Cc2ccccc2S(=O)(=O)N2CCCC2)c2c(n1CC(N)=O)CC(C)(C)CC2=O [Example I-84, 2-(2,6,6-trimethyl-4-oxo-3-(2-(pyrrolidin-1-ylsulfonyl)benzyl)-4,5,6,7-tetrahydro-1H-indol-1-yl)acetamide] | > 500 nM
16 | Cc1c(Cc2ccccc2S(=O)(=O)N2CCCC2)c2c(n1CC(=O)O)CC(C)(C)C(C)(C)C2=O [Example I-95, 2-(2,5,5,6,6-pentamethyl-4-oxo-3-(2-(pyrrolidin-1-ylsulfonyl)benzyl)-4,5,6,7-tetrahydro-1H-indol-1-yl)acetic acid] | < 5 nM
17 | Cc1c(Cc2ccccc2S(=O)(=O)N2CCCC2)c2c(n1CC(=O)O)CC(C)(C)C(F)(F)C2=O [Example I-96, 2-(5,5-difluoro-2,6,6-trimethyl-4-oxo-3-(2-(pyrrolidin-1-ylsulfonyl)benzyl)-4,5,6,7-tetrahydro-1H-indol-1-yl)acetic acid] | < 5 nM

Now from value to compound:

Row | IC50 | SMILES
18 | < 5 nM | Cc1c(Cc2ccc(S(=O)(=O)NC3CC3)cc2)c2c(n1CC(=O)O)CCC(C)(C)C2 [Example I-15, 2-(3-(4-(N-Cyclopropylsulfamoyl)benzyl)-2,5,5-trimethyl-4,5,6,7-tetrahydro-1H-indol-1-yl)acetic acid]
19 | < 5 nM | Cc1c(Cc2ccc(S(=O)(=O)N(C)C)cc2)c2c(n1CC(=O)O)CCC(C)(C)C2 [Example I-18, 2-(3-(4-(N,N-Dimethylsulfamoyl)benzyl)-2,5,5-trimethyl-4,5,6,7-tetrahydro-1H-indol-1-yl)acetic acid]
20 | < 5 nM | Cc1c(Cc2ccccc2S(=O)(=O)N2CCOCC2)c2c(n1CC(=O)O)CC(C)(C)CC2 [Example I-26, 2-(2,6,6-trimethyl-3-(2-(morpholinosulfonyl)benzyl)-4,5,6,7-tetrahydro-1H-indol-1-yl)acetic acid]
21 | < 5 nM | Cc1c(Cc2ccccc2S(=O)(=O)N2CCOCC2)c2c(n1[C@H](C)C(=O)O)CCC(C)(C)C2 [Example I-35, (R)-2-(2,5,5-trimethyl-3-(2-(morpholinosulfonyl)benzyl)-4,5,6,7-tetrahydro-1H-indol-1-yl)propanoic acid]
22 | < 5 nM | Cc1c(Sc2ccc(S(=O)(=O)N3CCOCC3)cc2)c2c(n1CC(=O)O)CCC(C)(C)C2 [Example I-37, 2-(2,5,5-trimethyl-3-(4-(morpholinosulfonyl)phenylthio)-4,5,6,7-tetrahydro-1H-indol-1-yl)acetic acid]
23 | < 5 nM | Cc1c(Cc2ccccc2S(=O)(=O)N(C)C)c2c(n1CC(=O)O)CC(C)(C)CC2=O [Example I-52, 2-(3-(2-(N,N-dimethylsulfamoyl)benzyl)-2,6,6-trimethyl-4-oxo-4,5,6,7-tetrahydro-1H-indol-1-yl)acetic acid]
24 | < 5 nM | Cc1c(Cc2ccccc2S(=O)(=O)N2CCCC2)c2c(n1CC(=O)OCCN1CCOCC1)CC(C)(C)CC2=O [Example I-62, 2-morpholinoethyl 2-(2,6,6-trimethyl-4-oxo-3-(2-(pyrrolidin-1-ylsulfonyl)benzyl)-4,5,6,7-tetrahydro-1H-indol-1-yl)acetate]
25 | < 5 nM | Cc1c(Cc2ccccc2S(=O)(=O)N2CCCC2)c2c(n1CC(=O)O)CCCC2=O [Example I-77, 2-(2-methyl-4-oxo-3-(2-(pyrrolidin-1-ylsulfonyl)benzyl)-4,5,6,7-tetrahydro-1H-indol-1-yl)acetic acid]
26 | < 5 nM | Cc1c(Cc2ccccc2S(=O)(=O)c2cccs2)c2c(n1CC(=O)O)CC(C)(C)CC2=O [Example I-81, 2-(2,6,6-trimethyl-4-oxo-3-(2-(thiophen-2-ylsulfonyl)benzyl)-4,5,6,7-tetrahydro-1H-indol-1-yl)acetic acid]
